Literature values in patent publication US6238865A, “Simple and efficient method to label and modify 3'-termini of RNA using DNA polymerase and a synthetic template with defined overhang nucleotides” (Chen; Guangtian, priority 1998, dated 2001).

Target: poly(A) polymerase (Saccharomyces cerevisiae, UniProt P29468)
Conditions: cited from Lingner et al., J. Biol. Chem. 266:8741-8746, 1991, read-out: Km for ATP

poly(A) polymerase, sequence (P29468 whole entry): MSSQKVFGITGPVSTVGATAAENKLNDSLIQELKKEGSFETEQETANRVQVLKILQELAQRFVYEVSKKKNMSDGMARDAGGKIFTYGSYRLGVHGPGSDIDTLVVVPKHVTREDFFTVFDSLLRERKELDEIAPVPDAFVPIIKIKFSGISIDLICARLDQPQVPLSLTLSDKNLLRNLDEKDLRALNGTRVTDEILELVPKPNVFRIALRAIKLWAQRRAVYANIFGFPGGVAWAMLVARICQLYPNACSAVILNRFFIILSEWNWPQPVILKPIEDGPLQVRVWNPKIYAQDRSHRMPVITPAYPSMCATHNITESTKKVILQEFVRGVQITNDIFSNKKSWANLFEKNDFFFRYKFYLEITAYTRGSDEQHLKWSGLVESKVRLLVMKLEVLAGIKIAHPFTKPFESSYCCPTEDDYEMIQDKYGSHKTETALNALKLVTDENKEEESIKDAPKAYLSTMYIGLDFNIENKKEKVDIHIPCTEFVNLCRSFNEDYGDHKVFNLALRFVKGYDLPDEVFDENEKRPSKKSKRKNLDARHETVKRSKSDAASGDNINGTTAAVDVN

Nc1ncnc2c1ncn2[C@@H]1O[C@H](COP(=O)(O)OP(=O)(O)OP(=O)(O)O)[C@@H](O)[C@H]1O [ATP]
Km: 50 µM
